Data taken from US4578400A, “Therapeutic composition and method for treatment of cardiovascular diseases” (priority 1982, dated 1986).

Experiments:
[1] = tested on: chloroform-induced arrhythmia (ventricular fibrillation); assay: Effect on chloroform-induced arrhythmia; assay type: in vivo, male ddy mice; settings: for Percent occurrence of ventricular fibrillation: control 100; for anti-arrhythmic potency compared with lidocaine (in words): 100 mg/kg oral vs lidocaine 10 mg/kg i.p.
From the text: When they stopped breathing, they were thoracotomized to examine the occurrence of ventricular fribrillation. The results are noted in Table 2 as percent occurrence of ventricular fibrillation.

Acute toxicity = settings: one week observation
From the text: Male ddy mice weighing about 25 g were divided into groups of 10 animals and orally administered once with 3 g/kg of 5--HDA, 5--HDA--Na, 5--HDAE, 5--HDA--DHP or δ-DL, or intraperitoneally injected once with 1 g/kg of said compounds.

[2] = Solubility (physicochemical properties, Table 1)
[3] = tested on: ouabain induced arrhythmia; assay: Effect on ouabain induced arrhythmia; assay type: in vivo, male hartley guinea pigs; settings: for relative time for extrasystole to occur / relative time for ventricular fibrillation to occur / relative time for cardiac arrest to occur: control = 100; for relative time for ventricular fibrillation to occur: *P < 0.05; for antiarrhythmic effects (in words): ouabain induced arrhythmia
From the text: Effect on ouabain induced arrhythmia
The procedure described in Matsubara et al. (Folia Pharmacologica Japonica, 72, 557-571, 1976) was followed.
Male hartley guinea pigs were divided into groups of 8 animals and anesthetized with intraperitoneal urethane. Three groups were orally administered 5--HDA--Na, 5--HDAE and 5--HDA--DHP dissolved in distilled water. Another group was intravenously injected with 5--HDA--Na dissolved in physiological saline. One group was orally administered δ-DL emulsified in 5% aqueous arabic gum solution. One group was injected intravenously with lidocaine dissolved in physiological saline. For the respective routes of administration, control groups were administered the solvents used in administration of the test compounds. Thirty minutes after the oral administration and one minute after the intravenous injection, ouabain was infused into the jugular vein at a rate of 5 μg/kg/min until extrasystole, ventricular fibrillation and cardiac arrest appeared on a standard limb lead II of ECG. The results are shown in Table 3, with the time necessary for the respective symptoms to occur in the control groups taken as 100.

[4] = Lowering serum lipid levels in Triton-induced hyperlipidemic rats; assay type: in vivo, male Wistar rats; settings: for inhibition rate, total cholesterol (serum) / inhibition rate, triglyceride (serum): 100 mg/kg oral, four times, against control, 10 hours after Triton WR-1339, *P < 0.05; for antilipidemic effects compared with Clofibrate (in words): 100 mg/kg, oral
Description: After 10 hours, blood samples were drawn to determine the serum levels of total cholesterol and triglyceride.

[5] = biological target: T1, 3-hydroxy-3-methylglutaryl coenzyme A (HMG-Co A) reductase (Rattus norvegicus, UniProt P51639); assay: Inhibition of HMG-CoA reductase activity; assay type: biochemical, rat (liver microsome); settings: rat liver microsome; read-out: IC30 (amount necessary for inhibiting the enzymatic activity by 30%)
T1 sequence (P51639 1-887): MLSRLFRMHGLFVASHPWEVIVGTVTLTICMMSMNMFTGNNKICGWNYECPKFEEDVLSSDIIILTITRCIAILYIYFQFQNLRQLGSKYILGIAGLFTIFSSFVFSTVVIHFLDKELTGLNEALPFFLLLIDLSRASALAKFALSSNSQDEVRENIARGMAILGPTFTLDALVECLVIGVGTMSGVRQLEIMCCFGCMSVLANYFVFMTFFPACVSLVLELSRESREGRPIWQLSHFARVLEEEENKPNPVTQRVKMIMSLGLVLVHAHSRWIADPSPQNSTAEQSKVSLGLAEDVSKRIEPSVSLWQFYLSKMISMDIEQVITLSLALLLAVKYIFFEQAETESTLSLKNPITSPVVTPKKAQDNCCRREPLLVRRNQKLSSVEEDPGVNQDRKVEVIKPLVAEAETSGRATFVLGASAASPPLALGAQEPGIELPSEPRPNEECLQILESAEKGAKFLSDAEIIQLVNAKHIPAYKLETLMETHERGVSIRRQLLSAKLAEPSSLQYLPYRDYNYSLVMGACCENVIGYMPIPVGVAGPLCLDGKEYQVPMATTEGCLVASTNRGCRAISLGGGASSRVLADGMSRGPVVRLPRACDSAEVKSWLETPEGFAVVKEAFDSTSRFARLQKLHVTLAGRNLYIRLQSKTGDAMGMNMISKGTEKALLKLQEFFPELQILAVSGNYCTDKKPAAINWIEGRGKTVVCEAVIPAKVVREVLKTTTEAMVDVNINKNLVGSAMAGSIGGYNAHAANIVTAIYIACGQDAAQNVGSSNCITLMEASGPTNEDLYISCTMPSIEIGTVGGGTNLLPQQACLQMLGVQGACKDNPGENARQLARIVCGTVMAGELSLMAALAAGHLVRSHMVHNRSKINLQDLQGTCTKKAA
From the text: Inhibition of the activity of 3-hydroxy-3-methylglutaryl coenzyme A (HMG-Co A) reductase

[6] = tested on: ventricular fibrillation after coronary artery ligation; assay: Antiarrhythmic effects on myocardial infarction (coronary ligation); assay type: in vivo, dogs; settings: before ligation = 100, control 41
From the text: Antiarrhythmic effects on myocardial infarction
The method described by Shinohara (Jap. Circul. J., 32, 1269-1281, 1968) was used. Dogs were divided into groups of 5 animals, anesthetized with intravenous pentobarbital and were thoracotomized under artificial respiration, and a platinum bipolar electrode was inserted on the wall of the right atrium. Then the sinus node was crushed and the animals were subjected to pacing (2.5 Hz, 3 msec, 3.5-8 V) with an electronic stimulator. The left anterior descending coronary artery was doubly ligated at a site 2 cm away from its origin (A. S. Harris, Circulation, 1, 1318, 1950). Then 5--HDA--Na and lidocaine were injected into the femoral vein of the respective dogs. Using an electrode inserted in an ischemic zone in the left ventricle, the animals were given 15 to 20 successive electrical shocks before the ligation and 30 minutes after the ligation and administration. The threshold level necessary for inducing ventricular fibrillation was determined for each group of animals and shown in Table 4, with the values before the ligation taken as 100.

[7] = tested on: chloroform-induced arrhythmia (ventricular fibrillation); settings: stated without own data; cited from earlier work
[8] = Lowering serum cholesterol levels in hyperlipidemic rabbits; assay type: in vivo, male Japanese white rabbits; settings: 100 mg/kg oral daily for 7 days
From the text: Male Japanese white rabbits weighing about 2.5 kg were fed on a solid diet containing 1% cholesterol (RC-4, Nippon Crea Co., Ltd.) for 10 weeks until hypercholesterolemia fully developed. The rabbits were then divided into groups of 5 animals, and 5--HDA--Na or δ-DL was orally admininistered daily for 7 days, either as a solution or as an emulsion in 5% aqueous arabic gum. Three hours after the last administration, blood was drawn to determine the serum level of cholesterol.

[9] = 100 mg/kg, oral, 15 min before chloroform, *P < 0.05
[10] = oral, 100 mg/kg, *P < 0.05 where starred

| SMILES | anti-arrhythmic potency compared with lidocaine (in words) [1] | anti-arrhythmic effects (in words) ([1]; 100 mg/kg, oral) | Percent occurrence of ventricular fibrillation [1, 9] | acute toxicity: abnormality (Acute toxicity; 1 g/kg intraperitoneal once) | acute toxicity: death (Acute toxicity; 1 g/kg intraperitoneal once) | acute toxicity: abnormality (Acute toxicity; 3 g/kg oral once) | acute toxicity: death (Acute toxicity; 3 g/kg oral once) | solubility in acetone [2] | solubility in benzene [2] | solubility in chloroform [2] | solubility in methanol [2] | solubility in water [2] | relative time for extrasystole to occur ([3]; oral, 100 mg/kg) | relative time for ventricular fibrillation to occur ([3]; oral, 100 mg/kg) | relative time for cardiac arrest to occur [3, 10] | antiarrhythmic effects (in words) [3] | inhibition rate, total cholesterol (serum) [4] [%] | inhibition rate, triglyceride (serum) [4] [%] | antilipidemic effects compared with Clofibrate (in words) [4] | also measured |
| --- | --- | --- | --- | --- | --- | --- | --- | --- | --- | --- | --- | --- | --- | --- | --- | --- | --- | --- | --- | --- |
| CCCCCC(O)CCCC(=O)O (stereo not shown) [5-HDA, 5-hydroxy-decanoic acid] | more potent than lidocaine | significant anti-arrhythmic effects | 30 | no abnormality occurred | no animal died | no abnormality occurred | no animal died | easily | easily | easily | easily | sparingly | – | – | – | – | – | – | – | Percent occurrence of ventricular fibrillation ([1]; 50 mg/kg, oral, 15 min before chloroform): 60 |
| CCCCCC(O)CCCC(=O)OCC(O)CO (stereo not shown) [5-HDA-DHP, 2',3'-dihydroxy-propyl-5-hydroxydecanoate] | more potent than lidocaine | significant anti-arrhythmic effects | 20 | no abnormality occurred | no animal died | no abnormality occurred | no animal died | easily | – | easily | easily | soluble | 193 | 139 | 122 | significant antiarrhythmic effects | 19 | 18 | equipotent to or stronger than the effect of the known anti-lipidemic agent, Clofibrate | – |
| CCCCCC(O)CCCC(=O)OCC (stereo not shown) [5-HDAE, Ethyl-5-hydroxy-decanoate] | more potent than lidocaine | significant anti-arrhythmic effects | 30 | no abnormality occurred | no animal died | no abnormality occurred | no animal died | easily | easily | easily | easily | sparingly | 151 | 146 | 132 | significant antiarrhythmic effects | 19 | 17 | equipotent to or stronger than the effect of the known anti-lipidemic agent, Clofibrate | – |
| CCOC(=O)C(C)(C)Oc1ccc(Cl)cc1 [Clofibrate, reference compound] | – | – | – | – | – | – | – | – | – | – | – | – | – | – | – | – | 14 | 16 | – | – |
| CC[C@H](C)C(=O)O[C@H]1CCC=C2C=C[C@H](C)[C@H](CC[C@@H]3C[C@@H](O)CC(=O)O3)[C@H]21 [Compactin, reference compound] | – | – | – | – | – | – | – | – | – | – | – | – | – | – | – | – | – | – | – | IC30 [5]: 30 µM |
| CCN(CC)CC(=O)Nc1c(C)cccc1C [Lidocaine, reference compound] | – | – | – | – | – | – | – | – | – | – | – | – | – | – | – | – | – | – | – | Percent occurrence of ventricular fibrillation ([1]; 10 mg/kg, intraperitoneally 5 minutes before chloroform): 40; relative time for cardiac arrest to occur ([3]; i.v., 10 mg/kg): 118; relative time for extrasystole to occur ([3]; i.v., 10 mg/kg): 133; relative time for ventricular fibrillation to occur ([3]; i.v., 10 mg/kg): 129; Threshold level for inducing ventricular fibrillation, 30 min after ligation ([6]; 0.3 mg/kg i.v.): 68; Threshold level for inducing ventricular fibrillation, 30 min after ligation ([6]; 1.0 mg/kg i.v., *P < 0.05): 84; effectiveness by oral administration (in words) [7]: not effective by oral administration |
| CCCCCC1CCCC(=O)O1 (stereo not drawn) [δ-DL, δ-decalactone] | more potent than lidocaine | significant anti-arrhythmic effects | 30 | no abnormality occurred | no animal died | no abnormality occurred | no animal died | easily | easily | easily | easily | insoluble | 157 | 137 | 140 | significant antiarrhythmic effects | 23 | 11 | equipotent to or stronger than the effect of the known anti-lipidemic agent, Clofibrate | serum level of total cholesterol (in words) [8]: lowered the serum level of total cholesterol; Total serum cholesterol ([8]; 3 h after last administration, control 1,394, *P < 0.05): 1,141 mg/dl; solubility in hexane ([2]; hexane): easily |
